Experimental data taken from patent publication US20240000879A1, “HERBAL COMPOSITIONS WITH IMPROVED BIOAVAILABILITY” (priority 2017, published 2024).

Experiment: Herbal composition/SNAC oral rat pharmacokinetic (PK) study (Example 5)
Type: in vivo
Conditions: rats; for increase in AUC0-Tlast / increase in Cmax: oral, 50 mg/kg cannabis extract + 500 mg/kg SNAC; for time to reach the mean maximum plasma concentration (Tmax): single oral gavage
Protocol: Example 5. Summary of an herbal composition/SNAC oral rat pharmacokinetic (PK) study.
Methods. Animals were dosed on Day 1 and a series of blood samples were collected over a period of 4 hours post dose for pharmacokinetic evaluation. Animals were euthanized following collection of their last blood sample.

SMILES | increase in AUC0-Tlast [fold] | increase in Cmax [fold] | time to reach the mean maximum plasma concentration (Tmax) (high dose group (50 mg extract/kg + 500 mg SNAC/kg)) [hours post dose] | time to reach the mean maximum plasma concentration (Tmax) (low and mid dose groups (25 mg extract/kg + 250 or 500 mg SNAC/kg)) [hour post dose]
C=C(C)[C@@H]1CCC(C)=C[C@H]1c1c(O)cc(CCCCC)cc1O [CBD] | 22.1 | 14.2 | – | –
CCCCCc1cc(O)c2c(c1)OC(C)(C)[C@@H]1CCC(C)=C[C@@H]21 [THC] | 6.3 | 6.9 | 2 | 1
